Source: patent US6506901B2, “Substituted 2-(S)-hydroxy-3-(piperidin-4-yl-methylamino)-propyl ethers and substituted 2-aryl-2-(R)-hydroxy-1-(piperidin-4-yl-methyl)-ethylamine β-3 adrenergic receptor agonists” (Wyeth, priority 2000, dated 2003)
Where “and” joins values, the source holds several entries; their conditions need not be identical. Equal entries are not always repeated.

Target: T1, human β3 receptors (Homo sapiens, UniProt P13945)
T1 construct: Full length β3 AR clones (402 amino acids) containing the last 6 amino acids of hβ3—AR; expressed in transfected cells; host or cells: CHO cells
Assay: cAMP response (SPA) in CHO cells expressing cloned human β3 adrenergic receptor
Assay type: cell-based
Conditions: for EC50: CHO cells expressing human β3 receptor, cAMP, 30 min incubation, 10^−9 M to 10^−5 M; for IA(β3): maximal response compared to the maximal response of isoproterenol at 10^−5 M
Method: Binding to the receptors was measured in Chinese Hamster ovary (CHO) cells that were transfected with adrenergic receptors.
Cloning of Human β3-AR Genomic DNA: cDNA was constructed by ligating four polymerase chain reaction (PCR) products using the following primers: an ATG-NarI fragment, sense primer 5′-[…]3′ and anti-sense primer 5′ […]3′; a NarI-AccI fragment, 5′ […]3′ as sense and 5′ […]3′ as anti-sense primer; an AccIi-StyI fragment, sense primer 5′ […]3′ and anti-sense primer 5′ […]3′ and a StyI-TAG fragment, with sense primer 5′ […]3′ and anti-sense primer 5′ […]3′. The corresponding primer sequences are described in Mantzoros, C. […] The four fragments are ligated into a pUC 18 plasmid (Gibco-BRL) and sequenced.
CHO cells were grown in 24-well tissue culture plates in Dulbecco's Modified Eagle Media with 10% fetal bovine serum, MEM non-essential amino acids, Penicillin-Streptompycin and Geneticin. […] Isoproterenol (10^−5 M) was used as an internal standard for comparison of activity. Cells were incubated at 37° C. on a rocker for 30 min with the β3 cells and 15 min for β1 and β2 cells. Incubation was stopped with the addition of 0.2N HCl and neutralized with 2.5N NaOH. The plates, containing the cells and neutralized media, were stored at −20 degrees celsius until ready to test for cAMP using the SPA test kit (Amersham).
Data Analysis and Results: Data collected from the SPA test procedure were analyzed as per cent of the maximal isoproterenol response at 10^−5 M. Activity curves were plotted using the SAS statistical and graphics software.

T1 sequence (P13945 whole entry): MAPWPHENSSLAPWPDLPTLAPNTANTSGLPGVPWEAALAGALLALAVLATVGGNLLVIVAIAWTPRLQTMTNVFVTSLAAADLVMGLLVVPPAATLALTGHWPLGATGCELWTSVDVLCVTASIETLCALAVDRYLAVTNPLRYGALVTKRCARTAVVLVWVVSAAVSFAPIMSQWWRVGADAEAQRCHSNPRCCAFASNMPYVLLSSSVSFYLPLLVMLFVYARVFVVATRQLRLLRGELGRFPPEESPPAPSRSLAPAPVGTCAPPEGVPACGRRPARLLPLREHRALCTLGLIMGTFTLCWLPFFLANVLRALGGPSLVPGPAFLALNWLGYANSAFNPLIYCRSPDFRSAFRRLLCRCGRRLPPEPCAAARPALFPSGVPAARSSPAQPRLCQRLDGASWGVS

Row | EC50 | IA(β3) | SMILES
1 | 25 nM | 1 | COC(=O)c1cccc2c1ccn2-c1ccc(S(=O)(=O)N2CCC(CNC[C@H](O)c3ccc(O)c(NS(C)(=O)=O)c3)CC2)cc1 [Example 98, 1-[4-(4-{[(2R)-2-Hydroxy-2-(4-hydroxy-3-methanesulfonylamino-phenyl)-ethyl-amino]-methyl}-piperidine-1-sulfonyl)-phenyl]-1H-indole-4-carboxylic Acid Methyl Ester]
2 | 9 nM | 1 | CS(=O)(=O)Nc1cc([C@@H](O)CNCC2CCN(S(=O)(=O)c3ccc(-n4ccc5c(C(=O)O)cccc54)cc3)CC2)ccc1O [Example 99, 1-[4-(4-{[(2R)-2-Hydroxy-2-(4-hydroxy-3-methanesulfonylamino-phenyl)-ethylamino]-methyl}-piperidine-1-sulfonyl)-phenyl]-1H-indole-4-carboxylic Acid]
3 | 41 nM | 1 | CCOC(=O)c1cnn(-c2ccc(S(=O)(=O)N3CCC(CNC[C@H](O)c4ccc(O)c(NS(C)(=O)=O)c4)CC3)cc2)c1 [Example 100, Ethyl 1-{4-[(4-{[((2R)-2-Hydroxy-2-{4-hydroxy-3-[(methylsulfonyl)amino]-phenyl}ethyl)amino]methyl}piperidin-1-yl)sulfonyl]phenyl}-1H-pyrazole-4-carboxylate]
4 | 43 nM | 0.93 | CS(=O)(=O)Nc1cc([C@@H](O)CNCC2CCN(S(=O)(=O)c3ccc(-n4cc(C(=O)O)cn4)cc3)CC2)ccc1O [Example 101, 1-{4-[(4-{[((2R)-2-Hydroxy-2-{4-hydroxy-3-[(methylsulfonyl)amino]-phenyl}ethyl)amino]methyl}piperidin-1-yl)sulfonyl]phenyl}-1H-pyrazole-4-carboxylic Acid]
5 | 8 nM | 1 | COC(=O)CCc1nc(-c2ccc(S(=O)(=O)N3CCC(CNC[C@H](O)c4ccc(O)c(NS(C)(=O)=O)c4)CC3)cc2)no1 [Example 104, 3-{3-[4-(4-{[(2R)-2-Hydroxy-2-(4-hydroxy-3-methanesulfonylamino-phenyl)-ethylamino]-methyl}-piperidine-1-sulfonyl)-phenyl]-[1,2,4]oxadiazol-5-yl}-propionic Acid Methyl Ester]
6 | 1 nM | 0.97 | CS(=O)(=O)Nc1cc([C@@H](O)CNCC2CCN(c3ccc(S(=O)(=O)N4CCCCC4)cc3)CC2)ccc1O [Example 106, (R)-N-{2-Hydroxy-5-[1-hydroxy-2-({1-[4-(piperidine-1-sulfonyl)-phenyl]-piperidin-4-ylmethyl}-amino)-ethyl]-phenyl}-methanesulfonamide]
7 | 10 nM | 1.2 | COC(=O)c1ccc(N2CCC(CNC[C@H](O)c3ccc(O)c(NS(C)(=O)=O)c3)CC2)nc1 [Example 107, Methyl 6-(4-{[((2R)-2-Hydroxy-2-{4-hydroxy-3-[(methylsulfonyl)amino]phenyl}-ethyl)amino]methyl}piperidin-1-yl)-nicotinate]
9 | 95 nM | 0.9 | COC(=O)[C@@H]1CCCN1C(=O)Nc1ccc(S(=O)(=O)N2CCC(CNC[C@H](O)c3ccc(O)c(NS(C)(=O)=O)c3)CC2)cc1 [Example 111, (2S)-1-({4-[(4-{[((2R)-2-Hydroxy-2-{4-hydroxy-3-[(methylsulfonyl)amino]-phenyl}ethyl)amino]methyl}piperidin-1-yl)sulfonyl]anilino}carbonyl)pyrrolidine-2-carboxylic Acid Methyl Ester]
10 | 131 nM | 0.93 | CS(=O)(=O)Nc1cc([C@@H](O)CNCC2CCN(S(=O)(=O)c3ccc(NC(=O)N4CCC[C@H]4C(=O)O)cc3)CC2)ccc1O [Example 112, (2S)-1-({4-[(4-{[((2R)-2-Hydroxy-2-{4-hydroxy-3-[(methylsulfonyl)amino]phenyl}-ethyl)amino]methyl}piperidin-1-yl)sulfonyl]anilino}carbonyl)pyrrolidine-2-carboxylic Acid]
11 | 10 nM | 1 | CC(C)C[C@H](NC(=O)c1ccc(N2CCC(CNC[C@H](O)c3ccc(O)c(NS(C)(=O)=O)c3)CC2)cc1)C(=O)O [Example 114, (2S)-2-{[4-(4-{[((2R)-2-Hydroxy-2-{4-hydroxy-3-[(methylsulfonyl)amino]phenyl}-ethyl)amino]methyl}piperidin-1-yl)benzoyl]amino}-4-methylpentanoic Acid]
12 | 55 nM | 1 | CC(C)c1ccc(S(=O)(=O)N2CCC(CNC[C@H](O)c3ccc(O)c(NS(C)(=O)=O)c3)CC2)cc1 [Example 124, N-(2-hydroxy-5-{(1R)-1-hydroxy-2-[({1-[(4-isopropylphenyl)-sulfonyl]piperidin-4-yl}methyl)amino]ethyl}phenyl)-methanesulfonamide]
13 | 810 nM | 1.34 | Cc1c(C)c(C)c(S(=O)(=O)N2CCC(CNC[C@H](O)c3ccc(O)c(NS(C)(=O)=O)c3)CC2)c(C)c1C [Example 143, N-(2-hydroxy-5-{(1R)-1-hydroxy-2-[({1-[(2,3,4,5,6-pentamethylphenyl)suIfonyl]piperidin-4-yl}methyl)amino]ethyl}phenyl)methanesulfonamide]
14 | 42 nM | 0.76 | CS(=O)(=O)Nc1cc([C@@H](O)CNCC2CCN(S(=O)(=O)c3cccc4ccccc34)CC2)ccc1O [Example 153, N-{2-hydroxy-5-[(1R)-1-hydroxy-2-({[1-(1-naphthylsulfonyl)piperidin-4-yl]methyl}amino)ethyl)phenyl}methanesulfonamide]
15 | 670 nM | 1 | O=c1[nH]c2cccc(OC[C@@H](O)CNCC3CCN(S(=O)(=O)c4ccc5ccccc5c4)CC3)c2[nH]1 [Example 157, 4-{[(2S)-2-hydroxy-3-({[1-(2-naphthylsulfonyl)piperidin-4-yl]methyl}amino)propyl]oxy}-1,3-dihydro-2H-benzimidazol-2-one]
16 | 346 nM | 0.85 | CC(C)(C)c1ccc(S(=O)(=O)N2CCC(CNC[C@H](O)COc3ccc(O)cc3)CC2)cc1 [Example 160, 4-[((2S)-3-{[(1-{[4-(tert-butyl)phenyl]sulfonyl}piperidin-4-yl)methyl]amino}-2-hydroxypropyl)oxy]phenol]
17 | 11 nM and 35 nM | 0.64 and 0.94 | CC(C)(C)c1ccc(S(=O)(=O)N2CCC(CNC[C@H](O)COc3cccc4[nH]c(=O)[nH]c34)CC2)cc1 [Example 162, 4-[((2S)-3-{[(1-{[4-(tert-butyl)phenyl]sulfonyl}piperidin-4-yl)methyl]-amino}-2-hydroxypropyl)oxy]-1,3-dihydro-2H-benzimidazol-2-one]
18 | 40 nM | 0.85 | CC(C)(C)c1ccc(S(=O)(=O)N2CCC(CNC[C@H](O)c3ccc(O)c(NS(C)(=O)=O)c3)CC2)cc1 [Example 163, N-[5-((1R)-2-{[(1-{[4-(tert-butyl)phenyl]sulfonyl}piperidin-4-yl)-methyl]amino}-1-hydroxyethyl)-2-hydroxyphenyl]-methanesulfonamide]
19 | 940 nM | 0.72 | CCc1cc(Br)ccc1S(=O)(=O)N1CCC(CNC[C@H](O)c2ccc(O)c(NS(C)(=O)=O)c2)CC1 [Example 168, N-(5-((1R)-2-[({1-[(4-bromo-2-ethylphenyl)sulfonyl]piperidin-4-yl}-methyl)amino]-1-hydroxyethyl}-2-hydroxyphenyl)-methanesulfonamide]
20 | 388 nM and 380 nM | 1.34 and 1.15 | CS(=O)(=O)Nc1cc([C@@H](O)CNCC2CCN(S(=O)(=O)c3c(Cl)sc(Cl)c3Br)CC2)ccc1O [Example 173, N-(5-{(1R)-2-[({1-[(4-bromo-2,5-dichlorothien-3-yl)sulfonyl]-piperidin-4-yl}methyl)amino]-1-hydroxyethyl}-2-hydroxyphenyl)-methanesulfonamide]
21 | 1410 nM | 0.72 | CS(=O)(=O)Nc1cc([C@@H](O)CNCC2CCN(S(=O)(=O)c3ccc(CNC(=O)c4ccccc4)s3)CC2)ccc1O [Example 183, N-({5-[(4-{[((2R)-2-hydroxy-2-{4-hydroxy-3-[(methylsulfonyl)-amino]-phenyl}ethyl)amino]methyl}piperidin-1-yl)sulfonyl]thien-2-yl}methyl)benzamide]
